# Measured values published in patent publication US20220024964A1, “Cyclic Di-Nucleotide Compounds as STING Agonists” (Merck Sharp & Dohme Corp., priority 2018, published 2022).
# Key:
# full-length HAQ STING = target: T1, full-length HAQ STING (Homo sapiens, UniProt Q86WV6, G230A/H232R/R293Q/R71H); assay: 3H-cGAMP filtration binding assay (HAQ STING); conditions: competition with tritiated cGAMP ligand, HAQ STING membrane
# T1 construct: Full-Length HAQ STING [STING(1-379)R71H, G230A, H232R,; made in house; host or cells: Trichoplusia ni (Hi-Five) insect cells via baculovirus (virus made in Sf21); used as a membrane preparation
# Source text: The ability of compounds to bind STING is quantified by the ability to compete with tritiated cGAMP ligand for human STING receptor membrane using a radioactive filter-binding assay. The binding assay employs STING receptor obtained from Hi-Five cell membranes overexpressing full-length HAQ STING prepared in-house and tritiated cGAMP ligand also purified in-house.
# (§1) The ability of compounds to bind STING is quantified by their ability to compete with tritiated cGAMP ligand for human STING receptor membrane using a radioactive filter-binding assay. The binding assay employs STING receptor obtained from Trichoplusia ni cell membranes (T. ni; Expression Systems, cat #94-002F, www.expressionsystems.com) overexpressing full-length HAQ STING and tritiated cGAMP ligand.
# The basic HAQ STING filtration assay protocol is as follows: The compounds were serially titrated by the Hamilton STARPlus CORE in a 96-well plate (Greiner, #651201) using a 1:3 ten-point dose response format. […] Tritium levels for each reaction well were then measured using a PerkinElmer TopCount plate reader.
# (§2) After normalization to controls, the percent activity for each compound concentration was calculated by measuring the amount of remaining radioactivity. […]
# full-length WT STING = target: T2, full-length WT STING (Homo sapiens, UniProt Q86WV6, H232R); assay: 3H-cGAMP filtration binding assay (WT STING); conditions: competition with tritiated cGAMP ligand, WT STING membrane
# T2 construct: Full-Length STING WT [STING(1-379)H232R-gg-AviTag-gs-; made in house; host or cells: Trichoplusia ni insect cells via baculovirus (virus made in Sf21); used as a membrane preparation
# Experimental: as §1, with “WT” for “HAQ”
# The basic WT STING filtration assay protocol is as follows: 16 nM of [^3H] c-GAMP ligand was prepared by diluting into assay buffer, and 50 uL of this working stock was manually added to each well of the assay plate. After ligand addition, 2 uL of either titrated test compound, DMSO control (Sigma #276855), or cold cGAMP control was added to the appropriate wells using a BIOMEK FX. The serially titrated compound was prepared on a Hamilton STARPlus CORE in a 96-well plate (Greiner, #651201) using a 1:3 ten-point dose response format. […] Tritium levels for each reaction well were then measured using a PerkinElmer TopCount plate reader.
# as §2
# THP1 cells = assay: IFN-β secretion in THP1 cell culture (5 h); type: cell-based, human; conditions: 30 μM compound, 30 uM cGAMP = 100%
# Experimental: The ability of compounds to stimulate the secretion of interferon-beta from THP1 cells was measured using a human IFN-β AlphaLISA kit (Perkin Elmer, Cat. No. AL265F). The basic protocol is as follows:
# A Labcyte Echo 550 acoustic dispenser was used to transfer 120 nL of compound dissolved in DMSO into the wells of an empty, sterile 384-well microplate, (Corning, Cat. No. 3712). THP1 cells (American Type Culture Collection, Cat. No. TIB202) previously frozen in Recovery Medium (Life Technologies, Cat. No. 12648-010) were thawed and immediately diluted 10-fold into 37° C. assay medium (RPMI 1640+L-Glutamine & phenol red, Life Technologies, Cat. No. 11875-085; 0.5% heat inactivated fetal bovine serum, Sigma Aldrich, Cat. No. F4135; 1 mM Sodium Pyruvate, Life Technologies, Cat. No. 11360-070; lx non-essential amino acids; Life Technologies, Cat. No. 11140-050). The cell viability and count was ascertained using a Beckman Coulter V-Cell XR cell counter. The cell suspension was centrifuged at 200×g for 5 min at RT. […]
# The assay was started by dispensing 40 μL of the previously prepared cell suspension into the wells of the plate containing compounds. […] The plate was then read on a Perkin Elmer Envision (λex=680 nm, λcm=570 nm). The percent effect of the AlphaLISA signal at each compound concentration was calculated based on 30 uM cGAMP positive controls and 0.3% DMSO negative controls. […]
# T1 sequence (Q86WV6 with tags, fused parts or gaps R71H/G230A/H232R/R293Q): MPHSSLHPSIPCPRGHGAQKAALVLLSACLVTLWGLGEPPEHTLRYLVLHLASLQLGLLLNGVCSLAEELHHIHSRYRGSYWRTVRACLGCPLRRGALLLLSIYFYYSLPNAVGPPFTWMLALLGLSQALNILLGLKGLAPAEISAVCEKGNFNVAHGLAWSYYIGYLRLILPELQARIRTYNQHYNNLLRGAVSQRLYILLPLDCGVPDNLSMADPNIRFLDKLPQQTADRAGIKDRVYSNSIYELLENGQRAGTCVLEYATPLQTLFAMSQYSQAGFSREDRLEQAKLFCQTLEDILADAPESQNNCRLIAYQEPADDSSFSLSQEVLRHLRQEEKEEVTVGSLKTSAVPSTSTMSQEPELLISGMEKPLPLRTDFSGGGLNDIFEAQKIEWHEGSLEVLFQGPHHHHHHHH
# T2 sequence (Q86WV6 with tags, fused parts or gaps H232R): as the sequence (Q86WV6 with tags, fused parts or gaps R71H/G230A/H232R/R293Q) above, with H71R, A230G, Q293R counted along it
structure (smiles),measurement,setting,value
"Nc1nc2c(ncn2[C@@H]2O[C@@H]3COP(=O)(S)O[C@@H]4C[C@H](n5cnc6c(N)ncnc65)O[C@@H]4COP(=O)(S)O[C@H]2C3)c(=O)[nH]1 (stereo partly drawn) [Example 1, 2-amino-9-[(5S,7R,8S,12aR,14R,15aR)-14-(6-amino-9H-purin-9-yl)-2,10-dioxido-2,10-disulfanyloctahydro-12H-5,8-methanofuro[3,2-1][1,3,6,9,11,2,10]pentaoxadiphosphacyclotetradecin-7-yl]-1,9-dihydro-6H-purin-6-one]",EC50,full-length HAQ STING,49.1 nM
same,EC50,full-length WT STING,118 nM
same,% Effect at 30 μM relative to 2′3′-cGAMP,THP1 cells,107%
